Counter-ions that a name gives are not always drawn.
molecular target: T1, NMDA-receptor subtype 2B (Rattus norvegicus, UniProt P35439+Q00960); assay: 3H-Ro 25-6981 binding (displacement) on rat brain membranes; conditions: displacement of 5 nM 3H-Ro 25-6981, rat whole brain membranes (minus cerebellum and medulla oblongata), 2 hours at 4° C.
T1 construct: Membranes were prepared by homogenization of the whole brain minus cerebellum and medulla oblongata; from tissue; host or cells: rat whole brain minus cerebellum and medulla oblongata, membrane preparation
Procedure: ^3H[R-(R*,S*)]-(α-(4-Hydroxy-phenyl)-β-methyl-4-(phenyl-methyl)-1-piperidine propanol)binding
Male Füllinsdorf albino rats weighing between 150-200 g were used. Membranes were prepared by homogenization of the whole brain minus cerebellum and medulla oblongata with a Polytron (10.000 rpm, 30 seconds), in 25 volumes of a cold Tris-HCl 50 mM, EDTA 10 mM, pH 7.1 buffer. The homogenate was centrifuged at 48,000 g for 10 minutes at 4° C. The pellet was resuspended using the Polytron in the same volume of buffer and the homogenate was incubated at 37° C. for 10 minutes. After centrifugation the pellet was homogenized in the same buffer and frozen at −80° C. for at least 16 hours but not more than 10 days. For the binding assay the homogenate was thawed at 37° C., centrifuged and the pellet was washed three times as above in a Tris-HCl 5 mM, pH 7.4 cold buffer. The final pellet was resuspended in the same buffer and used at a final concentration of […]. ^3H-Ro 25-6981 binding experiments were performed using a Tris-HCl 50 mM, pH 7.4 buffer. For displacement experiments 5 nM of ^3H-Ro 25-6981 were used and non specific binding was measured using 10 mM of tetrahydroisoquinoline and usually it accounts for 10% of the total. The incubation time was 2 hours at 4° C. and the assay was stopped by filtration on Whatmann GF/B glass fiber filters (Unifilter-96, Packard, Zürich, Switzerland). The filters were washed 5 times with cold buffer. The radioactivity on the filter was counted on a Packard Top-count microplate scintillation counter after addition of […] of microscint 40 (Canberra Packard S.A., Zuirich, Switzerland).
The effects of compounds were measured using a minimum of 8 concentrations and repeated at least once.

T1 sequence (Q00960 27-1482, other chains not shown): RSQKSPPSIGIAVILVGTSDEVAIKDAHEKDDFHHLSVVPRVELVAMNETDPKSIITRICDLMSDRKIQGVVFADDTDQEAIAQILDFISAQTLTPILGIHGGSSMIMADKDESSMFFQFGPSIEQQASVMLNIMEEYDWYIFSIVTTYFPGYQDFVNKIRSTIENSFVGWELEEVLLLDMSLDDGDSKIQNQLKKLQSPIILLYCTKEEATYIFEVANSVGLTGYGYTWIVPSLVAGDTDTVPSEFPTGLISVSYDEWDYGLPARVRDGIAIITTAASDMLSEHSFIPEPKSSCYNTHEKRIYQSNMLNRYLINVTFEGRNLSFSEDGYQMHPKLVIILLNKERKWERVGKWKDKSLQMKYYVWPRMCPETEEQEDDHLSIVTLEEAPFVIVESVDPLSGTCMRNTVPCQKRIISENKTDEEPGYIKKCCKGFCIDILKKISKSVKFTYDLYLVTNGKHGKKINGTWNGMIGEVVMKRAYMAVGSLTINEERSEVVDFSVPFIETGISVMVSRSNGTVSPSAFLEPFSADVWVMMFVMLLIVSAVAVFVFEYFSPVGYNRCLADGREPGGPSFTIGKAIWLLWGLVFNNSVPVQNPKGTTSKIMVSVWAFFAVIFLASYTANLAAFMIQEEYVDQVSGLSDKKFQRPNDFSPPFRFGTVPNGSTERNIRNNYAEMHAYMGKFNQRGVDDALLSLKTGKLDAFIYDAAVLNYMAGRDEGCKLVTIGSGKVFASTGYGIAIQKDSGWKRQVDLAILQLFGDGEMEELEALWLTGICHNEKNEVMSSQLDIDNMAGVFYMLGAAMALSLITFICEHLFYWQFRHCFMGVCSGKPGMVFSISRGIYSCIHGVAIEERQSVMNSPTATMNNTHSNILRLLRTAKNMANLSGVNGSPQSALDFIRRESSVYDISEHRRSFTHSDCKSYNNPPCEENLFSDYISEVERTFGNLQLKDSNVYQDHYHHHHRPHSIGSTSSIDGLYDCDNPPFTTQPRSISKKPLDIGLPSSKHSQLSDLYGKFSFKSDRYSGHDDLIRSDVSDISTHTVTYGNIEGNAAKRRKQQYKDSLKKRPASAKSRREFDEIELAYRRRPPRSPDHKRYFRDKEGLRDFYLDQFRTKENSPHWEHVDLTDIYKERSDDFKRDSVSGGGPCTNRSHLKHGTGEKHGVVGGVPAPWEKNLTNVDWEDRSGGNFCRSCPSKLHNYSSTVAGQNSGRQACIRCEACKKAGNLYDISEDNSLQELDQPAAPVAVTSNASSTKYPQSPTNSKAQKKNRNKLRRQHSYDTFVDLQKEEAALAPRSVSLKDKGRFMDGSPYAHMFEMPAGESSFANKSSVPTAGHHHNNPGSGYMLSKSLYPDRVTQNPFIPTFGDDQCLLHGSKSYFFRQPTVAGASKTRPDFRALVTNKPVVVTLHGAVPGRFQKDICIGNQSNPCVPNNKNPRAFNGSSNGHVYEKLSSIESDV

Compound | IC50 [nM]
1H-Imidazole, 1-(3,4-Dichlorophenyl)-4-[(4-methyl-1H-imidazol-1-yl)methyl]-, Hydrochloride (1:2) and 1H-Imidazole, 1-(3,4-Dichlorophenyl)-4-[(5-methyl-1H-imidazol-1-yl)methyl]-, Hydrochloride (1:2) (ratio 3:2) [Example 6] | 45
4-Imidazol-1-ylmethyl-1-(3-methylsulfanyl-phenyl)-1H-imidazole Hydrochloride (1:2) [Example 145] | 54
Cc1ccc(-n2cnc(Cn3ccnc3)c2)cc1C [Example 21] | 43
CSc1ccc(-n2cnc(Cn3ccnc3C)c2)cc1 [Example 27] | 27
Cc1cc(-n2cnc(Cn3ccnc3N)c2)ccc1Cl [Example 105, 1-[1-(4-Chloro-3-methyl-phenyl)-1H-imidazol-4-yl-methyl]-1H-imidazol-2-yl-amine-, Hydrochloride (1:2)] | 1
Cc1cc(-c2c[nH]c(Cn3ccnc3C)n2)ccc1F [Example 119, 1H-Imidazole, 1-[[4-(4-Fluoro-3-methylphenyl)-1H-imidazol-2-yl]methyl]-2-methyl-, Hydrochloride (1:2)] | 46
Cc1ccc(-c2cncc(Cn3ccnc3C)c2)cc1C [Example 130, 3-(3,4-Dimethyl-phenyl)-5-(2-methyl-imidazol-1-yl-methyl)-pyridine Hydrochloride (1:1)] | 65
Cc1ccc(-c2cncc(Cn3ccnc3C)c2)cc1Cl [Example 136, 3-(3-Chloro-4-methyl-phenyl)-5-(2-methyl-imidazol-1-yl-methyl)-pyridine Hydrochloride (1:1)] | 80
Cc1nccn1Cc1cncc(-c2ccc3c(c2)CCC3)c1 [Example 139, 3-Indan-5-yl-5-(2-methyl-imidazol-1-yl-methyl)-pyridine Hydrochloride (1:1)] | 65
Cc1nccn1Cc1cncc(-c2ccc(F)c(Cl)c2)c1 [Example 140, 3-(3-Chloro-4-fluoro-phenyl)-5-(2-methyl-imidazol-1-yl-methyl)-pyridine Hydrochloride (1:1)] | 40
Cc1nccn1Cc1cncc(-c2ccc(Cl)c(C(F)(F)F)c2)c1 [Example 141, 3-(4-Chloro-3-trifluoromethyl-phenyl)-5-(-2-methyl-imidazol-1-yl-methyl)-pyridine Hydrochloride (1:1)] | 39
CCc1nccn1Cc1cn(-c2cccc(SC(F)(F)F)c2)cn1 [Example 143] | 7.3
CCc1nccn1Cc1cn(-c2ccc(F)c(C(C)(F)F)c2)cn1 [Example 151, 1H-Imidazole, 1-[[1-1-[3-(1,1-Difluoroethyl)-4-fluorophenyl]-1H-imidazol-4-yl]methyl]-ethyl-, Hydrochloride (1:2)] | 14
CCc1nccn1Cc1cn(-c2cccc(C(C)C)c2)cn1 [Example 153] | 20
Cc1nccn1Cc1cn(-c2ccc3ccccc3c2)cn1 [Example 155, 1H-Imidazole, 2-Methyl-1-[[1-(naphtalen-2-yl)-1H-imidazol-4-yl]methyl]-, Hydrochloride (1:2)] | 10
CCc1nccn1Cc1cn(-c2ccc(F)c(C(F)F)c2)cn1 [Example 164, 1H-Imidazole, 1-[[1-(3-Difluoromethyl-4-fluorophenyl)-1H-imidazol-4-yl]methyl]-2-ethyl-, Hydrochloride (1:2)] | 30
CSc1cccc(-n2cnc(Cn3ccnc3)c2)c1 [Example 168, 4-Imidazol-1-ylmethyl-1-(3-methylsulfanyl-phenyl)-1H-imidazole Hydrochloride (1:2)] | 38
Cc1nccn1Cc1cn(-c2cccc(Cl)c2)cn1 [Example 173] | 28
CCc1nccn1Cc1cn(-c2cc(OC)cc(C(F)(F)F)c2)cn1 [Example 181] | 53
Cc1nccn1Cc1cncc(-c2ccc(F)c(C(F)F)c2)c1 [Example 225, 3-(3-Difluoromethyl-4-fluoro-phenyl)-5-(2-methyl-imidazol-1-ylmethyl)-pyridine] | 10
Cc1nccn1Cc1cncc(-c2cccc(C(C)(F)F)c2)c1 [Example 226, 3-[3-(1,1-Difluoro-ethyl)-phenyl]-5-(2-methyl-imidazol-1-ylmethyl)-pyridine] | 20

system: not given; assay: not given; conditions: not given

Compound | melting point
Cc1cc(-n2cnc(Cn3ccnc3N)c2)ccc1Cl (as salt: hydrochloride) [Example 105, 1-[1-(4-Chloro-3-methyl-phenyl)-1H-imidazol-4-yl-methyl]-1H-imidazol-2-yl-amine-, Hydrochloride (1:2)] | 230 to 233 °C
CCc1nccn1Cc1cn(-c2cccc(SC(F)(F)F)c2)cn1 (as salt: hydrochloride) [Example 143] | 234 to 236 °C
CCc1nccn1Cc1cn(-c2ccc(F)c(C(C)(F)F)c2)cn1 (as salt: hydrochloride) [Example 151, 1H-Imidazole, 1-[[1-1-[3-(1,1-Difluoroethyl)-4-fluorophenyl]-1H-imidazol-4-yl]methyl]-ethyl-, Hydrochloride (1:2)] | > 200 °C (dec.)
CCc1nccn1Cc1cn(-c2cccc(C(C)C)c2)cn1 (as salt: hydrochloride) [Example 153] | > 200 °C (dec.)
Cc1nccn1Cc1cn(-c2ccc3ccccc3c2)cn1 (as salt: hydrochloride) [Example 155, 1H-Imidazole, 2-Methyl-1-[[1-(naphtalen-2-yl)-1H-imidazol-4-yl]methyl]-, Hydrochloride (1:2)] | 247 to 248 °C
Cc1nccn1Cc1cn(-c2cccc(Cl)c2)cn1 (as salt: hydrochloride) [Example 173] | > 200 °C (dec.)
CCc1nccn1Cc1cn(-c2cc(OC)cc(C(F)(F)F)c2)cn1 (as salt: hydrochloride) [Example 181] | 245 to 246 °C
Cc1nccn1Cc1cn(-c2ccc3ccccc3n2)cn1 (as salt: sodium) [Example 204, 2-[4-(2-Methyl-imidazol-1-ylmethyl)-imidazol-1-yl]-quinoline] | 160 °C
CCc1nccn1Cc1cn(-c2ccc3ccccc3n2)cn1 (as salt: sodium) [Example 205, 2-[4-(2-Ethyl-imidazol-1-ylmethyl)-imidazol-1-yl]-quinoline] | > 80 °C (dec.)
c1ccc2nc(-n3cnc(Cn4ccnc4)c3)ccc2c1 (as salt: sodium) [Example 206, 2-(4-Imidazol-1-ylmethyl-imidazol-1-yl)-quinoline] | > 150 °C (dec.)
CCc1nccn1Cc1cn(-c2cnc3ccccc3c2)cn1 (as salt: sodium) [Example 210, 3-[4-(2-Ethyl-imidazol-1-ylmethyl)-imidazol-1-yl]-quinoline] | 132 to 136 °C
Cc1nccn1Cc1cn(-c2cnc3ccccc3c2)cn1 (as salt: sodium) [Example 211, 3-[4-(2-Methyl-imidazol-1-ylmethyl)-imidazol-1-yl]-quinoline] | 168 to 172 °C
Cc1nccn1Cc1cn(-c2ccc(Cl)cn2)cn1 (as salt: sodium) [Example 212, 5-Chloro-2-[4-(2-methyl-imidazol-1-ylmethyl)-imidazol-1-yl]-pyridine] | 192 to 196 °C
CCc1nccn1Cc1cn(-c2ccc(Cl)cn2)cn1 (as salt: sodium) [Example 213, 5-Chloro-2-[4-(2-ethyl-imidazol-1-ylmethyl)-imidazol-1-yl]-pyridine] | 182 to 185 °C
Cc1nccn1Cc1cn(-c2ccc3ncccc3c2)cn1 (as salt: sodium) [Example 220, 6-[4-(2-Methyl-imidazol-1-ylmethyl)-imidazol-1-yl]-quinoline] | > 125 °C (dec.)
CCc1nccn1Cc1cn(-c2ccc3ncccc3c2)cn1 (as salt: sodium) [Example 221, 6-[4-(2-Ethyl-imidazol-1-ylmethyl)-imidazol-1-yl]-quinoline] | > 79 °C (dec.)
Cc1nccn1Cc1cn(-c2cccc3cccnc23)cn1 (as salt: sodium) [Example 222, 8-[4-(2-Methyl-imidazol-1-ylmethyl)-imidazol-1-yl]-quinoline] | 150 to 154 °C
CCc1nccn1Cc1cn(-c2cccc3cccnc23)cn1 (as salt: sodium) [Example 223, 8-[4-(2-Ethyl-imidazol-1-ylmethyl)-imidazol-1-yl]-quinoline] | 78 to 81 °C
CC(=O)Nc1nccn1Cc1cn(-c2ccc(Cl)c(Cl)c2)cn1 [Example 110, N-{1-[1-(3,4-Dichloro-phenyl)-1H-imidazol-4-yl-methyl]-1H-imidazol-2-yl}-acetamide] | > 236 °C (dec.)
Cc1nccn1Cc1cnn(-c2ccc(Cl)c(Cl)c2)c1 [Example 114, 1-(3,4-Dichloro-phenyl)-4-(2-methyl-imidazol-1-yl-methyl)-1H-pyrazole] | 176 to 177 °C
